Source: publication PMC7315563, “Bioactive fluorenes. Part III: 2,7-dichloro-9H-fluorene-based thiazolidinone and azetidinone analogues as anticancer and antimicrobial against multidrug resistant strains agents” (BMC Chemistry, 2020)
In brackets after ≈: the same amount, converted by molar mass.

Assays:
[1] = tested on: MDA-MB-231 human breast cancer cells; assay: cell viability assay (MTT); type: cell-based; conditions: 24 h; for viability at 1 µg/mL: read-out: Validity (%) for sample concentrations (µg/mL) 1; for viability at 10 µg/mL: read-out: Validity (%) for sample concentrations (µg/mL) 10; for viability at 31.25 µg/mL: read-out: Validity (%) for sample concentrations (µg/mL) 31.25; for viability at 62.5 µg/mL: read-out: Validity (%) for sample concentrations (µg/mL) 62.5; for viability at 125 µg/mL: read-out: Validity (%) for sample concentrations (µg/mL) 125; for viability at 250 µg/mL: read-out: Validity (%) for sample concentrations (µg/mL) 250; for viability at 500 µg/mL: read-out: Validity (%) for sample concentrations (µg/mL) 500
In short: (§1)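 Fluorene compounds are applied in fresh RPMI-1640 (10% FBS) to cells seeded the previous day at 5000 cells/well, using 0–500 µg/mL, and left for 24 h. MTT conversion, read at 570 nm, reports viability.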

[2] = tested on: WI-38 human normal fibroblast cells; assay: cell viability assay (MTT); type: cell-based; conditions: 24 h; for viability at 31.25 µg/mL: read-out: Validity (%) for sample concentrations (µg/mL) 31.25; for viability at 62.5 µg/mL: 62.50 µg/mL, read-out: Validity (%) for sample concentrations (µg/mL) 62.50; for viability at 125 µg/mL: read-out: Validity (%) for sample concentrations (µg/mL) 125; for viability at 250 µg/mL: read-out: Validity (%) for sample concentrations (µg/mL) 250; for viability at 500 µg/mL: read-out: Validity (%) for sample concentrations (µg/mL) 500
In short: as §1

[3] = tested on: WI-38 cells; assay: FACS analysis, Annexin V and PI staining; type: cell-based, human; conditions: 24 h, 5g 1000 µg/mL, 6c, 6d, 6k 500 µg/mL
Procedure: (§2) To uncover the mechanism of cell death for the compounds 5h, 6c, 6d and 6k on WI-38, A549, and MDA-MB-231 cells; Annexin v and propedium Iodide (PI) were used. In brief, WI-38, A549, MDA-MB-231 cells were cultured in 10 tissue culture dish with initial number 4 × 10^5 cell/Ml in RPMI growth media. In the following day, cells were treated with 6c, 6d and 6k as the following; (0.0, 500 μg/mL form each drug for WI-38 treatment, 0.0, 85, 117 and 200 μg/mL; respectively, for […] and 0.0, 250 from each for MDA-MB-231 cells treatment). After 24 h incubations, cells were washed and trypsinized and suspended in 50 μL 1X Annexin v binding buffer followed by adding 5 μL FITC Annexin V and incubated for 15 min at room temperature then 5 μL of PI were added to each tube. Finally, 400 μL of 1X Annexin v binding buffer were added to each tube and analyzed using Becton-Dickinson FACS Caliber.

[4] = tested on: A549 cells; assay: FACS analysis, Annexin V and PI staining; type: cell-based, human; conditions: 24 h, 5g 500, 6c 85, 6d 117, 6k 200 µg/mL
Procedure: as §2

[5] = tested on: MDA-MB-231 cells; assay: FACS analysis, Annexin V and PI staining; type: cell-based, human; conditions: 24 h, 5g 500, 6c 105, 6d 170, 6k 130 µg/mL
Procedure: To uncover the mechanism of cell death for the compounds 5h, 6c, 6d and 6k on WI-38, A549, and MDA-MB-231 cells; Annexin v and propedium Iodide (PI) were used. In brief, WI-38, A549, MDA-MB-231 cells were cultured in 10 tissue culture dish with initial number 4 × 10^5 cell/Ml in RPMI growth media. […] After 24 h incubations, cells were washed and trypsinized and suspended in 50 μL 1X Annexin v binding buffer followed by adding 5 μL FITC Annexin V and incubated for 15 min at room temperature then 5 μL of PI were added to each tube. Finally, 400 μL of 1X Annexin v binding buffer were added to each tube and analyzed using Becton-Dickinson FACS Caliber.

[6] = tested on: Klebsiella pneumoniae (K. pneumoniae), multidrug resistant clinical isolate; assay: agar well diffusion assay; type: cell-based; conditions: 24 h, 500 µg/mL of tested compound
In short: (§3)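 Multidrug-resistant clinical isolates swabbed on Mueller–Hinton agar at about 1–5 × 10^5 CFU/mL; 0.5 cm wells received 50 μL compound at 500 μg/mL in 1% DMSO. Incubation 24 h, 37 °C for bacteria and C. albicans, 25 °C for Aspergillus; inhibition zone diameter measured in mm.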

[7] = tested on: Pseudomonas aeruginosa (P. aeruginosa), multidrug resistant clinical isolate; assay: agar well diffusion assay; type: cell-based; conditions: 24 h, 500 µg/mL of tested compound
In short: as §3

[8] = tested on: Staphylococcus aureus (S. aureus), multidrug resistant clinical isolate; assay: agar well diffusion assay; type: cell-based; conditions: S. aureus, 500 µg/mL of tested compound, 24 h; for zone of inhibition at 500 µg/mL: Staphylococcus aureus
In short: as §3

How did the viability at 1 µg/mL [1] turn out when `O=C1C(Cl)C(c2ccc(Cl)cc2)N1c1nc(-c2cc(Cl)cc3c2-c2ccc(Cl)cc2C3)cs1` (stereo not drawn) [6c, 3-Chloro-4-(4-chlorophenyl)-1-(4-(2,7-dichloro-9H-fluoren-4-yl)thiazol-2-yl)azetidin-2-one] was run?
The viability at 1 µg/mL was 92.8%.

And the viability at 10 µg/mL [1]?
Its viability at 10 µg/mL is 77.8%.

What about the viability at 31.25 µg/mL [1] of the same compound?
Its viability at 31.25 µg/mL is 63.1%.

And the viability at 62.5 µg/mL [1]?
The viability at 62.5 µg/mL was 53.1%.

And the viability at 125 µg/mL [1]?
The viability at 125 µg/mL was 46%.

What about the viability at 250 µg/mL [1] of the same compound?
Its viability at 250 µg/mL is 29.4%.

And the viability at 500 µg/mL [1]?
Its viability at 500 µg/mL is 24.8%.

And the IC50 [1]?
The IC50 was 104 µg/mL (≈ 195 µM).

And the viability at 31.25 µg/mL [2]?
The viability at 31.25 µg/mL was 94.5%.

And the viability at 62.5 µg/mL [2]?
The viability at 62.5 µg/mL was 65.9%.

What about the viability at 125 µg/mL [2] of the same compound?
The viability at 125 µg/mL was 63.4%.

What about the viability at 250 µg/mL [2] of the same compound?
The viability at 250 µg/mL was 59.5%.

And the viability at 500 µg/mL [2]?
Its viability at 500 µg/mL is 55.5%.

And the IC50 [2]?
Its IC50 is greater than 500 µg/mL.

And the “apoptotic cell death (of total cell number)” value (“apoptotic cell death” below) [3]?
Its value is 1.22%.

What about the “necrotic cell death (of total cell number)” value (from here on “necrotic cell death”) [3] of the same compound?
The value was 14.5%.

What about the “apoptotic cell death” value [4] of the same compound?
Its value is 27.32%.

And the “necrotic cell death” value [4]?
Its value is 2.1%.

What about the “apoptotic cell death” value [5] of the same compound?
Its value is 80.32%.

And the “necrotic cell death” value [5]?
Its value is 2.15%.

And the zone of inhibition at 500 µg/mL [6]?
Its zone of inhibition at 500 µg/mL is 6 mm.

And the zone of inhibition at 500 µg/mL [7]?
The zone of inhibition at 500 µg/mL was 10 mm.

And the zone of inhibition at 500 µg/mL [8]?
Its zone of inhibition at 500 µg/mL is 7 mm.

Which results are given for `O=C1C(Cl)C(c2ccc(Br)cc2)N1c1nc(-c2cc(Cl)cc3c2-c2ccc(Cl)cc2C3)cs1` (stereo not drawn) [6d, 4-(4-Bromophenyl)-3-chloro-1-(4-(2,7-dichloro-9H-fluoren-4-yl)thiazol-2-yl)azetidin-2-one]?
viability at 1 µg/mL [1]: 93.3%; viability at 10 µg/mL [1]: 89.1%; viability at 31.25 µg/mL [1]: 75.8%; viability at 62.5 µg/mL [1]: 63.3%; viability at 125 µg/mL [1]: 53.1%; viability at 250 µg/mL [1]: 27.7%; viability at 500 µg/mL [1]: 24%; IC50 [1]: 169 µg/mL (≈ 293 µM); viability at 31.25 µg/mL [2]: 92%; viability at 62.5 µg/mL [2]: 88.1%; viability at 125 µg/mL [2]: 78.6%; viability at 250 µg/mL [2]: 67.5%; viability at 500 µg/mL [2]: 67.7%; IC50 [2]: > 500 µg/mL; apoptotic cell death (of total cell number) [3]: 1.34%; necrotic cell death (of total cell number) [3]: 14.1%; apoptotic cell death (of total cell number) [4]: 36.3%; necrotic cell death (of total cell number) [4]: 2%; apoptotic cell death (of total cell number) [5]: 55.355%; zone of inhibition at 500 µg/mL [6]: 6 mm; zone of inhibition at 500 µg/mL [7]: 10 mm; Mean zone of inhibition [8]: low activity; zone of inhibition at 500 µg/mL [8]: 3 mm

Which viability at 1 µg/mL [1] does the source give for `O=C1C(Cl)C(c2cccs2)N1c1nc(-c2cc(Cl)cc3c2-c2ccc(Cl)cc2C3)cs1` (stereo not drawn) [6k, 3-Chloro-1-(4-(2,7-dichloro-9H-fluoren-4-yl)thiazol-2-yl)-4-(thiophen-2-yl)azetidin-2-one] here?
Its viability at 1 µg/mL is 96.4%.

And the viability at 10 µg/mL [1]?
Its viability at 10 µg/mL is 90.7%.

And the viability at 31.25 µg/mL [1]?
Its viability at 31.25 µg/mL is 78.6%.

What about the viability at 62.5 µg/mL [1] of the same compound?
Its viability at 62.5 µg/mL is 69.6%.

What about the viability at 125 µg/mL [1] of the same compound?
Its viability at 125 µg/mL is 51%.

And the viability at 250 µg/mL [1]?
The viability at 250 µg/mL was 33.3%.

What about the viability at 500 µg/mL [1] of the same compound?
Its viability at 500 µg/mL is 19.1%.

What about the IC50 [1] of the same compound?
The IC50 was 131 µg/mL (≈ 260 µM).

What about the viability at 31.25 µg/mL [2] of the same compound?
The viability at 31.25 µg/mL was 77.9%.

And the viability at 62.5 µg/mL [2]?
Its viability at 62.5 µg/mL is 64%.

What about the viability at 125 µg/mL [2] of the same compound?
Its viability at 125 µg/mL is 61.3%.

What about the viability at 250 µg/mL [2] of the same compound?
Its viability at 250 µg/mL is 60.3%.

And the viability at 500 µg/mL [2]?
Its viability at 500 µg/mL is 58.3%.

What about the IC50 [2] of the same compound?
Its IC50 is greater than 500 µg/mL.

What about the “apoptotic cell death” value [3] of the same compound?
The value was 0.61%.

And the “necrotic cell death” value [3]?
Its value is 9.93%.

What about the “apoptotic cell death” value [4] of the same compound?
The value was 32.67%.

And the “necrotic cell death” value [4]?
The value was 1.71%.

What about the “apoptotic cell death” value [5] of the same compound?
Its value is 67.25%.

And the “necrotic cell death” value [5]?
The value was 4.56%.

And the zone of inhibition at 500 µg/mL [6]?
Its zone of inhibition at 500 µg/mL is 3 mm.

And the zone of inhibition at 500 µg/mL [7]?
Its zone of inhibition at 500 µg/mL is 11 mm.

And the zone of inhibition at 500 µg/mL [8]?
Its zone of inhibition at 500 µg/mL is 7 mm.
